Test results reported in patent publication US6358538B1, “Method for protecting plants from fungus” (priority 1999, dated 2002).

System: fungus
Description: Various fertilizer quality nitrate salts have been used to test this effect, particularly potassium nitrate, ammonium nitrate, calcium nitrate, and sodium nitrate.

SMILES: O=[N+]([O-])O [nitrate ions, nitrate]
- concentration of nitrate ions in the solution found to be generally effective (at the sprinkler/mist head, plants in open ground plots, approx. 10 pounds nitrate salts per acre in approx. 1,000 gallons of water): 700 parts per million of water
- effect on germination of fungal spores and subsequent development (weak solutions, fungi on ground surface and plant surfaces, under certain conditions): fungistatic effect
